The source of these data is patent publication US6099822A, “Imaging methods and compositions” (priority 1998, dated 2000).

Data set [1] has as its system Chinese hamster ovary cells. To be noted: in words; cited from earlier work.
Data set [2] deals with MX-1 human breast tumor xenografts. The data set can be described thus: Autoradiographic biodistribution of Tc-99m-TG and C14-DG in nude mice bearing MX-1 tumors. The data set is classed as in vivo. The conditions noted are these: MX-1, center of the tumors, in words. The procedure:
3 mCi (111 MBq) of Tc-99m-5TG and 5 μCi (185 kBq) of C^14 -DG were injected at the same time into the tail vein of the mice. Autoradiogram sections including the tumors and vital organs of the mice were obtained at 20 minutes, 1 hour, and 3 hours post injection and developed using simultaneous Tc-99m and C^14 exposures of the same sections.

Consider `O=C([O-])CN(CCN(CC(=O)[O-])CC(=O)[O-])CCN(CC(=O)[O-])CC(=O)[O-].[99Tc+4]` [Tc-99m-DTPA], for which the “Exclusion by hypoxic cells” value in data set [1] was “exclusion of Tc-99m-DTPA by hypoxic cells”.

With C^14 -2-deoxyglucose [C^14 -DG], in data set [2], the Distribution within tumor entry is recorded as “decreased activity in this central area”.
